{
  "source": "patent US8871735B2",
  "about": "“Methods and compositions for providing cardiac protection” (University of Medicine and Dentistry of New Jersey, priority 2008, dated 2014)",
  "key": {"[1]": {"system": "H9C2 cells", "test": "cAMP accumulation in H9C2 cells", "type": "cell-based", "settings": "5 μM ISO, 3 minutes, 10 μM drug", "excerpt": "[…] Fludarabine ((+)-2-Fluoro-9-(5-O-phosphono-β-D-arabinofuranosyl)-9H-purin-6-amine) and Cladribine (2-chloro-2′-deoxyadenosine) are anti-cancer drugs, Adefovir (Bis(2,2-dimethylpropanoyloxymethyl)[2-(6-amino-9H-purin-9-yl)ethoxymethyl]phosphonate) and Zidovudine are anti-HIV drugs. Zidovudine-TP is a metabolite of zidovudine which inhibits virus replication. TP; triphosphate. 3-Deazaadenosine, Formycin A (7-Amino-3-(β-D-ribofuranosyl)-1H-pyrazolo[4,3-d]pyrimidine), 2-Far (2-Fluoroadenosine), formycin A ((2S,3R,4S,5R)-2-(7-amino-2H-pyrazolo[5,4-e]pyramidin-3-yl-5-(hydroxymeth-yl)oxolane-3,4-diol), 2-FD (2-Fluoro-2′-deoxyadenosine) and 2′5′ ddAdo (2′5′-dideoxyadenosine) are experimental drugs.\n(§1) Mice were anesthetized with 2.5% tribromoethanol (0.010 to 0.015 mL per gram of body weight) injected intraperitoneally, and echocardiography was performed with ultrasonography (ACUSON Sequoia C256, Siemens Medical Solutions, Malvern, Pa.). For acute injection of isoproterenol, forskolin and milrinon, a PE-10 catheter was inserted into the right jugular vein, and drugs were injected at the rate of 1 μl/s. cAMP accumulation assay in H9C2 cells, a cardiac myoblast cell line, was examined as previously described."}, "[2]": {"system": "AC", "test": "cAMP production in membrane preparations from mouse heart", "type": "biochemical", "settings": "50 μM forskolin, 10 μM drug", "method": "Such membrane permeability was examined using whole cell, which is addressed in FIG. 11b). cAMP production was measured with 50 μM forskolin in the presence or absence of 10 μM of the indicated drugs. n=2. (b) cAMP accumulation is shown in H9C2 cells. […] Ara-Ade (Adenine 9-β-D-arabinofuranoside) is an anti-herpes simplex drug. Fludarabine ((+)-2-Fluoro-9-(5-O-phosphono-β-D-arabinofuranosyl)-9H-purin-6-amine) and Cladribine (2-chloro-2′-deoxyadenosine) are anti-cancer drugs, Adefovir (Bis(2,2-dimethylpropanoyloxymethyl)[2-(6-amino-9H-purin-9-yl)ethoxymethyl]phosphonate) and Zidovudine are anti-HIV drugs. Zidovudine-TP is a metabolite of zidovudine which inhibits virus replication. TP; triphosphate. 3-Deazaadenosine, Formycin A (7-Amino-3-(β-D-ribofuranosyl)-1H-pyrazolo[4,3-d]pyrimidine), 2-Far (2-Fluoroadenosine), formycin A ((2S,3R,4S,5R)-2-(7-amino-2H-pyrazolo[5,4-e]pyramidin-3-yl-5-(hydroxymeth-yl)oxolane-3,4-diol), 2-FD (2-Fluoro-2′-deoxyadenosine) and 2′5′ ddAdo (2′5′-dideoxyadenosine) are experimental drugs.\nVarious compounds with adenine-like backbone structure were screened because this structure is essential for both AC inhibition and plasma membrane permeability. Drug effects on AC activity was examined by using membrane preparations from mouse heart and striatum, in which AC5 provides 20% and 80% of total AC activity, respectively. […]"}, "[3]": {"system": "C57Bl/6 mice motor function", "test": "Rotarod performance test and pole test", "type": "in vivo, mouse", "settings": "Ara-Ade by mini-osmotic pump; MPTP 30 mg/kg i.p. daily for 5 days", "method": "In C57Bl/6 mice, Ara-Ade was chronically infused with an osmotic mini-pump at the indicated doses for 5 days. a) Each mouse was placed on a rod subjected to evaluate Rotarod performance. Mice were left for 1 min on the rod for habituation. The rod rotated gradually increasing from 4 to 40 rpm over the course of 5 min, and the time that mice could stay without failing was recorded. Five trials were conducted for each individual 10-25 min apart. As a positive control, 1-methyl 4-phenyl 1,2,3,6-tetrahydropyridine (MPTP) was intraperitoneally injected for the indicated dose for 5 days. *, p<0.01 relative to vehicle. #, p<0.05 relative to vehicle. n=6-7. b) To evaluate bradykinesia, a pole test was performed. Mice were placed head upward on the top of a rough surfaced pole that was wrapped with gauze to prevent slipping. The time until the mouse turned completely downward (open bars, TTURN) and the time until it climbed down to the floor (closed bars, TLA) were measured.\nFour days after the implantation, Rotarod performance test and pole test were examined as previously described. For MPTP injection (1-methyl 4-phenyl 1,2,3,6-tetrahydropyridine), mice were injected intraperitoneally (i.p.) with 0.1 mL of PBS or MPTP dissolved in PBS at 24-hour intervals for 5 days. The daily dose of MPTP was 30 mg/kg. […]"}, "[4]": {"system": "AC5", "settings": "cited from earlier work"}, "[5]": {"system": "cardiac myocytes", "settings": "cited from earlier work"}, "[6]": {"molecular_target": "AC2 (UniProt P26769)", "test": "AC inhibition, recombinant AC proteins: AC2", "type": "biochemical"}, "[7]": {"system": "AC5", "test": "AC inhibition, recombinant AC proteins: AC5", "type": "biochemical"}, "[8]": {"molecular_target": "T1, AC5 (UniProt P30803)", "T1 construct": "IC50 AC5; other: recombinant AC proteins; other: THFA: in the presence of Gs-α/GTPαS/forskolin", "test": "AC inhibition, recombinant AC proteins: AC5", "type": "biochemical", "settings": "recombinant AC proteins; read-out: IC50 AC5"}, "[9]": {"system": "cardiac myocytes", "test": "ISO-stimulated cAMP accumulation in cultured cardiac myocytes", "type": "cell-based, mouse", "settings": "10 μM compound"}, "[10]": {"molecular_target": "T2, AC3 (Rattus norvegicus, UniProt P21932)", "T2 construct": "made in house", "T2 sequence (P21932 whole entry)": "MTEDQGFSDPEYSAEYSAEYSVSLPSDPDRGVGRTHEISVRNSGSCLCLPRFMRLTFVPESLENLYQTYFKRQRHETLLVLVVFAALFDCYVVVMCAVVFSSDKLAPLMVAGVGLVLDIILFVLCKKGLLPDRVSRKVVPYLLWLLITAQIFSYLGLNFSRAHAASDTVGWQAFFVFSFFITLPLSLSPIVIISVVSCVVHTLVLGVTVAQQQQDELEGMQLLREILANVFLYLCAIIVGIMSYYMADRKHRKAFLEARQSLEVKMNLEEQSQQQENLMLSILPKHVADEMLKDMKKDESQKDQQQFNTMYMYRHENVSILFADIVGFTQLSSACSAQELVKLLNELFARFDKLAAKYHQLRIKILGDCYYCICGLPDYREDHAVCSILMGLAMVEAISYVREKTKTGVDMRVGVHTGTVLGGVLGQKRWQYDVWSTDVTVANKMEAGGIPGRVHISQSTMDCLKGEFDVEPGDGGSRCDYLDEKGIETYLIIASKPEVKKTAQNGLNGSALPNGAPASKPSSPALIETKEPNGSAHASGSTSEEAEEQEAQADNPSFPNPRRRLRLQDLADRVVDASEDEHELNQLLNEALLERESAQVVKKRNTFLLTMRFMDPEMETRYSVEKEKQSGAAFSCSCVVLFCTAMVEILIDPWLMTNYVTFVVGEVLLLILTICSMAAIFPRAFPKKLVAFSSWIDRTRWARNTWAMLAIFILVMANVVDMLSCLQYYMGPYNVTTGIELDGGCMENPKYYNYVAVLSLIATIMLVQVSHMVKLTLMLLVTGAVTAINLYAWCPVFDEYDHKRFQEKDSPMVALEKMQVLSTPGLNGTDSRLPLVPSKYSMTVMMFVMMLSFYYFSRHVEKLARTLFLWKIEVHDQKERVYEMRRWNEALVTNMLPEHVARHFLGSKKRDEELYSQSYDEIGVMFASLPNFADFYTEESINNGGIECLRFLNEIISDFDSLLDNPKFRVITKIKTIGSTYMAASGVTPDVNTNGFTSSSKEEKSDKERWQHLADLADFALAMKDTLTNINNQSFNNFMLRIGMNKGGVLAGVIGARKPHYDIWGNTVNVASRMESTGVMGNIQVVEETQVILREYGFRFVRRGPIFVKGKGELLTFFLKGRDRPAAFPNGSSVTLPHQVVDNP", "test": "AC inhibition, recombinant AC proteins: AC3", "type": "biochemical"}, "[11]": {"system": "cardiac myocytes", "test": "ISO-induced cell contraction in cultured cardiac myocytes", "type": "cell-based", "settings": "10 μM"}, "[12]": {"system": "cardiac myocytes", "test": "ISO-induced apoptosis in cultured cardiac myocytes (DNA fragmentation ELISA)", "type": "cell-based", "settings": "100 μM ISO, 48 h", "description": "Cultured cardiac myocytes were incubated with 100 μM ISO in the presence or absence of AC5 inhibitors at the indicated concentrations for 48 h."}, "[13]": {"system": "AC2", "settings": "previously noted; cited from earlier work"}, "[14]": {"system": "mice", "test": "Basal cardiac function (echocardiography) under chronic drug infusion alone", "type": "in vivo, mouse", "settings": "chronic infusion of drug alone (3 days to 1 week)", "excerpt": "(§2) ISO with or without AC5 inhibitors were chronically infused with osmotic mini-pump implanted subcutaneously at indicated doses for 1 week in c57Bl/6 mice. Mice were then subjected to echocardiography (a) and the hearts were removed and subjected to pathological examinations such as myocardial apoptosis (b) and fibrosis (c). n=4-8.\n(§3) In C57Bl/6 mice, ISO with or without AC5 inhibitors or metoprolol were chronically infused with an osmotic mini-pump at the indicated doses for 1 week. Mice were then subjected to echocardiography (a) and heart tissue were subjected to a myocardial apoptosis assay (b). *, p<0.01 vs vehicle. #, p<0.05 vs vehicle. .dagger., p<0.01 vs ISO. .dagger-dbl., p<0.05 vs ISO. n=4-15. […] Comparisons between multiple groups were made using ANOVA with post-hoc tests.\nas §1, with “described. […]” for “described.”"}, "[15]": {"system": "C57Bl/6 mice, chronic ISO infusion", "test": "Chronic ISO infusion heart failure model", "type": "in vivo, mouse", "settings": "for ISO-induced decrease in LVEF (and FS): ISO 60 mg/kg/d 7 days, Ara-Ade 20 and 100 mg/kg/day, 2′5′ ddAdo 20 mg/kg/day", "excerpt": "as §2, §3\nTenofovir diphosphate (PMPA-PP), zidovudine monophosphate (MP), zidovudine diphosphate (PP), zidovudine triphosphate (TP), famciclovir penciclovir and valaciclovir were purchased from Moravek. Formycin A (FMA) and Formycin B (FMB) were purchased from Berry and Associates. All other reagents were from Sigma unless specified. Long-term infusion of isoproterenol (Sigma, St. Louis, Mo.) was performed for 7 days at a dose of 60 mg/kg/d with or without AC5 inhibitors by using a miniosmotic pump (ALZET model 2001, DURECT Corp, Cupertino, Calif.). Control mice received vehicle in pumps. Pumps were removed 24 hours before biochemical and physiological studies. Experiments were performed in 3- to 5-month-old male C57Bl/6, and in AC5Tg transgenic mice. This study was approved by the Animal Care and Use Committee at New Jersey Medical School.\nas §1"}, "[16]": {"system": "isolated perfused rat hearts", "settings": "cited from earlier work"}, "[17]": {"system": "patients", "settings": "BHAT; cited from earlier work"}},
  "data": [
    {"molecule": "Nc1nccc2c1ncn2[C@@H]1O[C@H](CO)[C@@H](O)[C@H]1O", "note": "[3-deazaadenosine, 3-Deazaadenosine]", "values": [
      {"measurement": "inhibition of cAMP accumulation in H9C2 cells", "setting": "[1]", "value": "little inhibition"},
      {"measurement": "ratio of inhibition between the heart membrane and the striatum membrane", "setting": "[2]", "value": "less than one"}
    ]},
    {"molecule": "CN1CC=C(c2ccccc2)CC1", "note": "[MPTP, 1-methyl 4-phenyl 1,2,3,6-tetrahydropyridine]", "values": [
      {"measurement": "Rotarod and pole test performance", "setting": "[3]", "value": "significantly impaired"}
    ]},
    {"molecule": "Nc1ncc2c(n1)CC(c1ccco1)CC2=O", "note": "(stereo not drawn) [NKY80, 2-amino-7-(2-furanyl)-7,8-dihydro-5(6H)-quinazoline]", "values": [
      {"measurement": "inhibition of purified AC5 protein in vitro", "setting": "[4]", "value": "moderate inhibition"},
      {"measurement": "inhibition of cAMP accumulation in cultured cardiac myocytes", "setting": "[5]", "value": "did not inhibit cAMP accumulation"}
    ]},
    {"molecule": "Nc1ncnc2c1ncn2C1CCC(C(=O)NO)C1", "note": "(stereo not drawn) [PMC-6]", "values": [
      {"measurement": "IC50", "setting": "[6]", "value": 65.3, "unit": "µM"},
      {"measurement": "Selectivity ratio for AC5, AC5/AC2", "setting": "[7]; ratio of IC50 for AC5 to that for AC2", "value": 0.0049},
      {"measurement": "Selectivity ratio for AC5, AC5/AC3", "setting": "[7]; ratio of IC50 for AC5 to that for AC3", "value": 0.029},
      {"measurement": "IC50", "setting": "[8]", "value": 0.32, "unit": "µM"},
      {"measurement": "decrease in ISO-induced cAMP production / accumulation in cultured cardiac myocytes", "setting": "[9]", "value": 50, "unit": "%"},
      {"measurement": "IC50", "setting": "[10]", "value": 11.1, "unit": "µM"},
      {"measurement": "inhibition of ISO-induced cell contraction", "setting": "[11]", "value": "did not inhibit"},
      {"measurement": "ISO-induced apoptosis in cultured cardiac myocytes", "setting": "[12]", "value": "abolished"}
    ]},
    {"molecule": "Nc1ncnc2c1ncn2C1CCCO1", "note": "(stereo not drawn) [THFA, 9-(tetrahydro-2-furyl)adenine]", "values": [
      {"measurement": "selectivity ratio between AC5 and AC2", "setting": "[7]", "value": 130},
      {"measurement": "selectivity ratio between AC6 and AC2", "setting": "[13]", "value": 1.8}
    ]},
    {"molecule": "COCCc1ccc(OCC(O)CNC(C)C)cc1", "note": "(stereo not drawn) [metoprolol]", "values": [
      {"measurement": "basal LVEF", "setting": "[14]", "value": "decreased"},
      {"measurement": "ISO-induced decrease in LVEF (and FS)", "setting": "[15]", "value": "attenuated ISO-induced cardiac dysfunction"},
      {"measurement": "ISO-induced decrease in LVEF (and FS)", "setting": "[15]; listed as Metoprolol", "value": "rescued ISO-induced LVEF decrease"},
      {"measurement": "HR decreased by chronic ISO", "setting": "[15]; chronic ISO infusion", "value": "rescue decreased HR"},
      {"measurement": "ISO-induced myocardial apoptosis in vivo", "setting": "[15]; chronic ISO infusion", "value": "to a lesser degree than Ara-Ade"},
      {"measurement": "ISO-induced wall thickening (DESP, DPW)", "setting": "[15]; chronic ISO infusion", "value": "did not show significant increase"}
    ]},
    {"molecule": "CC(C)NCC(O)COc1cccc2ccccc12", "note": "(stereo not drawn) [propranolol]", "values": [
      {"measurement": "arrhythmia in low flow perfusion / NE model", "setting": "[16]", "value": "effectively reduced arrhythmia"},
      {"measurement": "decrease of sudden cardiac death, patients with a history of HF", "setting": "[17]", "value": 47, "unit": "%"},
      {"measurement": "decrease of sudden cardiac death, patients with a history of MI", "setting": "[17]", "value": 28, "unit": "%"}
    ]}
  ]
}
